Target: T1, human selenocysteine lyase (hSCL) (Homo sapiens, UniProt Q96I15)
T1 construct: gene SCLY
T1 sequence (Q96I15 8-445): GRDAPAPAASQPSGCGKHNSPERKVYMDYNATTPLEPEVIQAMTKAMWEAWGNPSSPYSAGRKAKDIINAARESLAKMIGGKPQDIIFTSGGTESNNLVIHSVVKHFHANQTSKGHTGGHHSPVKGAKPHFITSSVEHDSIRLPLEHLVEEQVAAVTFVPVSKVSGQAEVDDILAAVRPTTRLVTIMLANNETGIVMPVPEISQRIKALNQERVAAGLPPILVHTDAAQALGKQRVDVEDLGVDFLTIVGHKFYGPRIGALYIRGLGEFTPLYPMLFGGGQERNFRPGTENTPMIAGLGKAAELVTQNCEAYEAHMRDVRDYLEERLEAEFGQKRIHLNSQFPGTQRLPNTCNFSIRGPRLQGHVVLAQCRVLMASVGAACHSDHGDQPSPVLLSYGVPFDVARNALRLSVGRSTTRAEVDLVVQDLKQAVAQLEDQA
Test: UV/Vis spectrum of as-isolated protein
Format: binding
Conditions: 120 mM Tris pH 8.5, 2 mM TCEP; covalent internal aldimine

Cc1ncc(COP(=O)(O)O)c(C=O)c1O [PLP]
UV/Vis spectrum of as-isolated protein: the Shiff base linking the PLP cofactor to the protein exists mainly in the protonated

Source: paper PMC3266904, “Biochemical Discrimination between Selenium and Sulfur 2: Mechanistic Investigation of the Selenium Specificity of Human Selenocysteine Lyase” (PLoS ONE, 2012)
